Two compounds from patent US20260199427A1 (priority 2021, published 2026) can be followed below.

Several values for one entry are separate records, joined by “and”; a condition that tells them apart may be missing. Equal entries are not always repeated. Some results are limits rather than exact numbers.

In series [1] the test system is B. anthracis Ames NR-3838 spores. The arrangement: species or system New Zealand White (NZW) rabbits. The conditions noted are these: rabbit, in vivo.
The test system is the same in series [2]. Also noted: species or system New Zealand White (NZW) rabbits. The conditions noted are these: rabbit, in vivo. The source holds these as a separate data set.
Series [3] relates to B. anthracis Ames spores (NR3838). The arrangement: species or system New Zealand White (NZW) rabbits. The conditions noted are these: rabbit, in vivo.
Series [4] has the same test system. The arrangement: species or system New Zealand White (NZW) rabbits. The conditions noted are these: rabbit, in vivo. This is another data set of the same source.
For series [5], the system named is B. anthracis Ames NR-3838 spores. The note with it: rabbit, in vivo.
Another series has as its system B. anthracis. The series is described as follows: microbe, parasite or virus in culture. The series is classed as cell-based. The conditions noted are these: Bacillus anthracis.
In series [6] the test system is B. anthracis Ames NR-3838 spores. Also noted: species or system New Zealand White (NZW) rabbits. The note with it: rabbit, in vivo. The source holds these as a separate data set.
Series [7] shares this test system. Also noted: species or system New Zealand White (NZW) rabbits. The note with it: rabbit, in vivo. The source holds these as a separate data set.
The subject of series [8] is B. anthracis Ames spores (NR3838). Also noted: species or system New Zealand White (NZW) rabbits. The conditions noted are these: rabbit, in vivo. This is another data set of the same source.
Series [9] shares this test system. Also noted: species or system New Zealand White (NZW) rabbits. The conditions noted are these: rabbit, in vivo. The source holds these as a separate data set.

As to `C[C@H]1COc2c(N3CCN(C)CC3)c(F)cc3c(=O)c(C(=O)O)cn1c23` [Levofloxacin], the survival in series [1] was determined as 100%. The “Average Bacterial Load (cfu/g), lung” value in series [2] stood at 6.93E+03 cfu/g. For the same compound, in [3], the overall survival rate came to 50%; the survival is 100% and 50%. For the same compound, in [4], the “B. anthracis bacterial load in lymph node tissue” value stood at 0 cfu/g and the “B. anthracis bacterial load in spleen tissue” value was 0 cfu/g. In addition, the “peak of febrile response (core body temperature)” value in series [5] was around 41 °C.

In the series with B. anthracis, `CCCCCCCCCCNCCNC1(C)CC(OC2C(Oc3c4cc5cc3Oc3ccc(cc3Cl)[C@@H](O)[C@@H](NC(=O)[C@@H](CC(C)C)NC)C(=O)N[C@@H](CC(N)=O)C(=O)N[C@H]5C(=O)N[C@H]3C(=O)N[C@H](C(=O)N[C@H](C(=O)O)c5cc(O)c(CNCP(=O)(O)O)c(O)c5-c5cc3ccc5O)[C@H](O)c3ccc(c(Cl)c3)O4)OC(CO)C(O)C2O)OC(C)C1O` (some centres unmarked) [Vibativ, N^3″-[2-(decylamino)ethyl]-29-[[(phosphonomethyl)amino]methyl]vancomycin] returned an MIC below 0.0625 µg/mL. For the same compound, the survival in series [1] worked out at 100%. For the same compound, in series [6], the “animals positive for bacteremia” value is reported as 2 out of 12 and the “average level of bacteremia, comparing only the two antibiotic-treated groups” value is listed as “significantly (p<0.05) lower”. Besides, in [2], the “Average Bacterial Load (cfu/g), lung” value came to 1.93E+03 cfu/g and the “average bacterial load in the lung tissue, comparing only the two antibiotic-treated groups” value is recorded as “significantly (p<0.05) lower”. Further, the “anthrax induced lesions (histopathology)” value in series [7] was “mitigation of anthrax induced lesions”. In addition, in series [3], the overall survival rate is given as 67%; the survival is 100% and 60%. For the same compound, the bacteremia entry in [8] is given as “never developed bacteremia at a detectable level”. Moreover, the “anthrax-related lesions (histopathology)” value in series [9] is “generally mitigated”. For the same compound, in [5], the “maximum percent weight loss” value is on record as “significantly (p<0.05) higher” and the “peak of febrile response (core body temperature)” value is around 41 °C.
